Source: the supplement of paper PMC11208160

Experiment: recombinant barcode read abundance after kanamycin selection (control-corrected) (log10(CPM+1)); higher = more efficient recombination; sequences stand for … in AGTGCAGAGAAAATCGGCCAGTTTTCTCTGCCTGCAGTCCGCATGCCGT…AGATTTATGCAGCGGACTGCCTTTCTCCCAAAGTGATAAACCGGACAGTATCATGGACCGGTTTTCCCGGTAATCCGTATTTGCAAGGTTGGTTTCACT; site = the 11-nt target
How it was run: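 A vector carrying a T7-inducible recombinase and the last 73 bp of the bridge RNA received, by Gibson cloning, oligos encoding a promoter, target, barcode and the first 104 bridge RNA bases under J23119. The pooled constructs entered E. coli together with a donor plasmid by electroporation. Selection used chloramphenicol/ampicillin/kanamycin with 0.1 mM IPTG, with chloramphenicol/ampicillin LB agar as the control, each in two replicates. Recombination efficiency is the averaged, control-corrected counts-per-million of barcodes at recombinant junctions, reported as log10(CPM+1).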
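Note: IS621 recombinase and bridge RNA in Escherichia coli cells.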

Sequence	recombinant barcode read abundance (log10)
GGGGAAGCTTGGGTTCTAACCTGTTGCCT (site GGGGAAGCTAG)	1.73
GGGGAAGCTTGGGTTCTAACCTGTTGCCT (site GTGGAAGCTAG)	0.291
GGGGATCCTTGGGTTCTAACCTGTTGCGA (site GGGGAGCCTCC)	0.00823
GGGGATCCTTGGGTTCTAACCTGTTGCGA (site GGGGATCCTTC)	2.06
GGGGATTCTTGGGTTCTAACCTGTTGCCT (site GGGGATTCTAG)	2.05
GGGGATTCTTGGGTTCTAACCTGTTGCCT (site GTGGATGCTAG)	0.0823
GGGGCCTCTTGGGTTCTAACCTGTTGCAA (site AGGGCCTCTCT)	0.474
GGGGCCTCTTGGGTTCTAACCTGTTGCAA (site GGGGCCTCTTT)	2.56
GGGGCCTCTTGGGTTCTAACCTGTTGCTG (site GGAGCCTCTGA)	0.0595
GGGGCCTCTTGGGTTCTAACCTGTTGCTG (site GGGGCCTCTCA)	3.02
GGGGCTACTTGGGTTCTAACCTGTTGCAC (site GGGGCTACTAG)	0.58
GGGGCTACTTGGGTTCTAACCTGTTGCAC (site GGGGCTACTGT)	2.62
GGGGCTTCTTGGGTTCTAACCTGTTGCTT (site GGGGCATCTAA)	0.129
GGGGCTTCTTGGGTTCTAACCTGTTGCTT (site GGGGCCTCTAA)	0.762
GGGGCTTCTTGGGTTCTAACCTGTTGCTT (site GGGGCGTCTAA)	0.343
GGGGCTTCTTGGGTTCTAACCTGTTGCTT (site GGGGCTTCTAA)	0.913
GGGGTAACTTGGGTTCTAACCTGTTGCCT (site GGGACAACTAG)	0.0486
GGGGTAACTTGGGTTCTAACCTGTTGCCT (site GGGGTAACTAG)	0.58
GGGGTCCCTTGGGTTCTAACCTGTTGCCA (site GAGATCCCTTG)	0.247
GGGGTCCCTTGGGTTCTAACCTGTTGCCA (site GGGGTCCCTTG)	1.8
GGGTACACTTGGGTTCTAACCTGTTGCTA (site AGGTAGACTTA)	0.0922
GGGTACACTTGGGTTCTAACCTGTTGCTA (site GGGTACACTTA)	2.12

Sequence	recombinant barcode read abundance (log10)
GGGTACCCTTGGGTTCTAACCTGTTGCCT (site GAGTACCCTAG)	0.584
GGGTACCCTTGGGTTCTAACCTGTTGCCT (site GCGTACCCTAG)	0.126
GGGTACCCTTGGGTTCTAACCTGTTGCCT (site GGGTACCCTAG)	1.99
GGGTACCCTTGGGTTCTAACCTGTTGCCT (site GTGTACCCTAG)	0.133
GGGTCGGCTTGGGTTCTAACCTGTTGCGC (site GGGTCGGCTAC)	0.0769
GGGTCGGCTTGGGTTCTAACCTGTTGCGC (site GGGTCGGCTCC)	0.0276
GGGTCGGCTTGGGTTCTAACCTGTTGCGC (site GGGTCGGCTGC)	1.88
GGGTCGGCTTGGGTTCTAACCTGTTGCGC (site GGGTCGGCTTC)	0.0981
GGGTCGGCTTGGGTTCTAACCTGTTGCGG (site GGGTCGGCTAC)	0.147
GGGTCGGCTTGGGTTCTAACCTGTTGCGG (site GGGTCGGCTCC)	2.44
GGGTCGGCTTGGGTTCTAACCTGTTGCGG (site GGGTCGGCTGC)	0.0285
GGGTCGGCTTGGGTTCTAACCTGTTGCGG (site GGGTCGGCTTC)	0.609
GGGTCGGCTTGGGTTCTAACCTGTTGCTG (site GGGTCGGCTCA)	1.91
GGGTCGGCTTGGGTTCTAACCTGTTGCTG (site GTCTCGGCTCA)	0.0584
GGTAAATCTTGGGTTCTAACCTGTTGCCT (site GGTAAATCTAG)	0.459
GGTAAATCTTGGGTTCTAACCTGTTGCCT (site GGTAAGTCTAG)	0.359
GGTAACCCTTGGGTTCTAACCTGTTGCGG (site GGTAACCCTCC)	2.24
GGTAACCCTTGGGTTCTAACCTGTTGCGG (site GGTCACCCTCC)	0.0921
GGTAACCCTTGGGTTCTAACCTGTTGCGG (site GGTGACCCTCC)	0.106
GGTAACCCTTGGGTTCTAACCTGTTGCGG (site GGTTACCCTCC)	0.425
GGTAAGACTTGGGTTCTAACCTGTTGCGG (site GCTAAGACTCA)	0.0264
GGTAAGACTTGGGTTCTAACCTGTTGCGG (site GGTAAGACTCC)	1.64

Sequence	recombinant barcode read abundance (log10)
GGTACTCCTTGGGTTCTAACCTGTTGCGT (site GGTACGCCTAC)	0.18
GGTACTCCTTGGGTTCTAACCTGTTGCGT (site GGTACTCCTAC)	0.913
GGTAGGACTTGGGTTCTAACCTGTTGCGG (site AGTAGGCCTCC)	0.0127
GGTAGGACTTGGGTTCTAACCTGTTGCGG (site GGTAGGACTCC)	2
GGTATAACTTGGGTTCTAACCTGTTGCCA (site ACACCCTCTCT)	0.124
GGTATAACTTGGGTTCTAACCTGTTGCCA (site GGTATAACTTG)	0.132
GGTCCCGCTTGGGTTCTAACCTGTTGCCA (site GGGCCCGCTTA)	0.485
GGTCCCGCTTGGGTTCTAACCTGTTGCCA (site GGTCCCGCTTG)	1.77
GGTCGAGCTTGGGTTCTAACCTGTTGCCT (site GGTCGAGCTAG)	1.13
GGTCGAGCTTGGGTTCTAACCTGTTGCCT (site GGTCGCGCTAG)	0.0193
GGTCGAGCTTGGGTTCTAACCTGTTGCCT (site GGTCGGGCTAG)	0.146
GGTCGAGCTTGGGTTCTAACCTGTTGCCT (site GGTCGTGCTAG)	0.671
GGTCGTGCTTGGGTTCTAACCTGTTGCCT (site GGTCGAGCTAG)	0.304
GGTCGTGCTTGGGTTCTAACCTGTTGCCT (site GGTCGCGCTAG)	0
GGTCGTGCTTGGGTTCTAACCTGTTGCCT (site GGTCGGGCTAG)	0.106
GGTCGTGCTTGGGTTCTAACCTGTTGCCT (site GGTCGTGCTAG)	1.14
GGTCTAACTTGGGTTCTAACCTGTTGCCT (site GGTCAAACTAG)	0.0448
GGTCTAACTTGGGTTCTAACCTGTTGCCT (site GGTCCAACTAG)	0.631
GGTCTAACTTGGGTTCTAACCTGTTGCCT (site GGTCGAACTAG)	0.128
GGTCTAACTTGGGTTCTAACCTGTTGCCT (site GGTCTAACTAG)	0.649
GGTCTGCCTTGGGTTCTAACCTGTTGCCT (site AGTCTGCCTAG)	0.171
GGTCTGCCTTGGGTTCTAACCTGTTGCCT (site CGTCTGCCTAG)	0.252

Sequence	recombinant barcode read abundance (log10)
GGTCTGCCTTGGGTTCTAACCTGTTGCCT (site GGTCTGCCTAG)	0.375
GGTCTGCCTTGGGTTCTAACCTGTTGCCT (site TGTCTGCCTAG)	0.397
GGTGAGACTTGGGTTCTAACCTGTTGCCA (site AGTGGGACTTG)	0.235
GGTGAGACTTGGGTTCTAACCTGTTGCCA (site GGTGAGACTTG)	2.14
GGTGAGGCTTGGGTTCTAACCTGTTGCAT (site GGTGAGGCTAT)	2.31
GGTGAGGCTTGGGTTCTAACCTGTTGCAT (site TAACCTACTTA)	0.214
GGTGCATCTTGGGTTCTAACCTGTTGCTT (site ATATGTCCTTT)	0.0325
GGTGCATCTTGGGTTCTAACCTGTTGCTT (site GGTGCATCTAA)	0.0847
GGTGCGTCTTGGGTTCTAACCTGTTGCCT (site AGTGCGTCTAG)	0.246
GGTGCGTCTTGGGTTCTAACCTGTTGCCT (site CGTGCGTCTAG)	0.132
GGTGCGTCTTGGGTTCTAACCTGTTGCCT (site GGTGCGTCTAG)	1.57
GGTGCGTCTTGGGTTCTAACCTGTTGCCT (site TGTGCGTCTAG)	0.119
GGTGCTCCTTGGGTTCTAACCTGTTGCAC (site GGTGCTCCTAT)	0.085
GGTGCTCCTTGGGTTCTAACCTGTTGCAC (site GGTGCTCCTCT)	0.04
GGTGCTCCTTGGGTTCTAACCTGTTGCAC (site GGTGCTCCTGT)	0.684
GGTGCTCCTTGGGTTCTAACCTGTTGCAC (site GGTGCTCCTTT)	0.216
GGTGGCCCTTGGGTTCTAACCTGTTGCCT (site GATGGCCCTAG)	0.108
GGTGGCCCTTGGGTTCTAACCTGTTGCCT (site GCTGGCCCTAG)	0.22
GGTGGCCCTTGGGTTCTAACCTGTTGCCT (site GGTGGCCCTAG)	1.08
GGTGGCCCTTGGGTTCTAACCTGTTGCCT (site GTTGGCCCTAG)	0.296
